Biological target: T1, HDAC6 (Homo sapiens, UniProt Q9UBN7)
T1 sequence (Q9UBN7 1-1215): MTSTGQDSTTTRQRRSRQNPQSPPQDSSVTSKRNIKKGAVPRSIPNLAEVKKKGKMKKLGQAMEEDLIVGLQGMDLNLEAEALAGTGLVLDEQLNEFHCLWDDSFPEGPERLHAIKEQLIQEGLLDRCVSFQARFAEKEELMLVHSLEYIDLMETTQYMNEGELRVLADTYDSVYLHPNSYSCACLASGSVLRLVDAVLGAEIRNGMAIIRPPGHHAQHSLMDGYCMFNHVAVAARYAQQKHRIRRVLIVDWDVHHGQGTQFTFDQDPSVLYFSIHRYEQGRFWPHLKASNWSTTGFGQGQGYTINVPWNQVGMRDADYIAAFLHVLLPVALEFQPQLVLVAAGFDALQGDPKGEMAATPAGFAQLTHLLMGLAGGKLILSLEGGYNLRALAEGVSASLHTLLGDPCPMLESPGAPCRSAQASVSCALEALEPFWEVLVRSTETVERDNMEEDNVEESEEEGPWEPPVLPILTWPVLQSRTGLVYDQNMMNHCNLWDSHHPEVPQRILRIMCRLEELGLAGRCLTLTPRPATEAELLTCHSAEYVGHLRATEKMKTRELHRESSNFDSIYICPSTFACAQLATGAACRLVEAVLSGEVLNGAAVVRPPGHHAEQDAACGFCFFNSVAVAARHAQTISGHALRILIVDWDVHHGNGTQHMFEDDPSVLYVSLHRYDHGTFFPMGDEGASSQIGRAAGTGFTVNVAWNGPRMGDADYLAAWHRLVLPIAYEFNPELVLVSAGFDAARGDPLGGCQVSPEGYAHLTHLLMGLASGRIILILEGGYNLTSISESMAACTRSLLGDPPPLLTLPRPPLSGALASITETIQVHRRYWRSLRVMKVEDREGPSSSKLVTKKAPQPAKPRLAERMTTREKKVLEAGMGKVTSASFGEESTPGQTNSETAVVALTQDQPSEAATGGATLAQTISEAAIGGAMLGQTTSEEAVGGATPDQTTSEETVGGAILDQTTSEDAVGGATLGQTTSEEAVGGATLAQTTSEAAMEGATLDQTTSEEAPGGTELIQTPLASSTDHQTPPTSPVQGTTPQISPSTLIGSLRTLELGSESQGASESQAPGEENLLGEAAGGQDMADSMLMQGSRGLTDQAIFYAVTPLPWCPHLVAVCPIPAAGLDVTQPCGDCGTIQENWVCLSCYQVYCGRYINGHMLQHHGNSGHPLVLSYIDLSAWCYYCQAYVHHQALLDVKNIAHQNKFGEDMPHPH
Test: In vitro cell-based assay: acetylation levels of Alpha-Tubulin by Western Blot in MOLP8 cells
Parameters: endogenous in cells; host or cells: MOLP8
Details: 18 h, acetyl-alpha-tubulin relative band intensity, ACY-1215 1 μM = 100%
Description: In Vitro Cell-Based Assay
In order to determine the cellular activity of HDAC6 upon treatment with HDAC6 inhibitors, acetylation levels of Alpha-Tubulin (a HDAC6-specific substrate) were measured by Western Blot. For this, MOLP8 cells were seeded in 6-well plates at a cell density of 500.000 cells/well and treated with the selected compounds at 5 and 1 μM for 18 h at 37° C. and 5% CO2 in a humidified tissue culture incubator. Consecutively, cell pellets were collected and whole protein extracts prepared using RIPA buffer (SIGMA) supplemented with 1× protease inhibitors (cOmplete mini, Roche). Protein concentration was determined with Bradford's reagent (Bio-Rad) as per manufacturer's instructions, and 7 μg of total protein were loaded into pre-cast 10% NuPAGE Novex gels (Life Technologies). Gels were run in […] (Life Technologies) and proteins were transferred using the iBlot 2 Dry Blotting System (Life Technologies). Blots were subsequently rinsed in distilled water and stained with Ponceau S solution (SIGMA). Blots were then washed in distilled water to remove Ponceau excess and scanned with the Epson Perfection V600 Photo professional Scanner. After this, blots were de-stained and blocked in 5% milk/PBS-Tween 0.1% for 1 h at room temperature followed by incubation with anti-Acetyl-alpha Tubulin (SIGMA cat. #T7451, 1:10.000 dilution) and anti-Beta-actin (SIGMA, cat. #A5316, 1:2.000 dilution) primary antibodies in 5% milk/PBS-T 0.1%, overnight at 4° C. on a shaking platform. After incubation, blots were washed 3 times for 5 minutes each in PBS-Tween 0.5% and incubated with anti-mouse HRP-conjugated secondary antibody (Jackson Immuno Research, cat. #115-035-068) at 1:8.000 in 5% milk/PBS-Tween 0.1%, 1 h at room temperature on a shaking platform. After 3 washes of 5 minutes each with PBS-Tween 0.5% and 1 wash in PBS 1×, blots were developed with ECL Plus (GE Healthcare) and the chemiluminescent reaction imaged with the G:Box Chemi XRQ (Syngene) imaging system. WB and Ponceau images were analysed with ImageJ software, WB band intensities normalized by either total protein or Beta-actin content and made relative to ACY-1215 1 μM (equivalent to 100%). ACY-1215 is a HDAC6 inhibitor, and is also known as ricolinostat, with chemical name 2-(diphenylamino)-N-[7-(hydroxyamino)-7-oxoheptyl]-5-pyrimidinecarboxamide. Percentage of band intensities was classified as follows: […]

SMILES	Cellular activity @1 uM	Cellular activity @5 uM
COCCn1nc(-c2cc(-c3noc(C(F)(F)F)n3)ccn2)c2ncccc21 [Example 1aaa, 3-(2-(1-(2-Methoxyethyl)-1H-pyrazolo[4,3-b]pyridin-3-yl)pyridin-4-yl)-5-(trifluoromethyl)-1,2,4-oxadiazole]	+ (50-150)	+ (50-150)
CCn1nc(-c2cc(-c3noc(C(F)(F)F)n3)ccn2)c2ncccc21 [Example 1aab, 3-(2-(1-Ethyl-1H-pyrazolo[4,3-b]pyridin-3-yl)pyridin-4-yl)-5-(trifiuoromethyl)-1,2,4-oxadiazole]	+ (50-150)	+ (50-150)
Cn1ccnc1CCn1nc(-c2cc(-c3noc(C(F)(F)F)n3)ccn2)c2ncccc21 [Example 1aac]	+ (50-150)	++ (150-300)
Cn1cc(Cn2ccc3cnc(-c4cc(-c5noc(C(F)(F)F)n5)ccn4)cc32)cn1 [Example 1aad, 3-(2-(1-((1-Methyl-1H-pyrazol-4-yl)methyl)-1H-pyrrolo[3,2-c]pyridin-6-yl)pyridin-4-yl)-5-(trifluoromethyl)-1,2,4-oxadiazole]	+ (50-150)	++ (150-300)

The next lines start with the values.

Cellular activity @1 uM	Cellular activity @5 uM	SMILES
− (<50)	++ (150-300)	CCCn1ccc2cc(-c3cc(-c4noc(C(F)(F)F)n4)ccn3)ncc21 [Example 1a, 3-(2-(1-Propyl-1H-pyrrolo[2,3-c]pyridin-5-yl)pyridin-4-yl)-5-(trifluoromethyl)-1,2,4-oxadiazole]
+ (50-150)	+ (50-150)	O=C(CCc1ccccc1)Nc1ccnc(-c2cc(-c3noc(C(F)(F)F)n3)ccn2)c1 [Example 1ad, 3-Phenyl-N-(4′-(5-(trifluoromethyl)-1,2,4-oxadiazol-3-yl)-[2,2′-bipyridin]-4-yl)propanamide]
+ (50-150)	+ (50-150)	O=C(NC1CCCNC1)c1ccnc(-c2cc(-c3noc(C(F)(F)F)n3)ccn2)c1 (stereo not drawn) [Example 1af, N-(Piperidin-3-yl)-4′-(5-(trifluoromethyl)-1,2,4-oxadiazol-3-yl)-[2,2′-bipyridine]-4-carboxamide]
− (<50)	+ (50-150)	FC(F)(F)c1nc(-c2ccnc(-c3ccc(OCCCn4cccn4)cn3)c2)no1 [Example 1ag, 3-(5′-(3-(1H-Pyrazol-1-yl)propoxy)-[2,2′-bipyridin]-4-yl)-5-(trifluoromethyl)-1,2,4-oxadiazole]
− (<50)	+ (50-150)	CCCn1cc(COC)c2cc(-c3cc(-c4noc(C(F)(F)F)n4)ccn3)ncc21 [Example 1ai, 3-(2-(3-(Methoxymethyl)-1-propyl-1H-pyrrolo[2,3-c]pyridin-5-yl)pyridin-4-yl)-5-(trifluoromethyl)-1,2,4-oxadiazole]
+ (50-150)	+ (50-150)	CCCCn1cc(CO)c2cc(-c3cc(-c4noc(C(F)(F)F)n4)ccn3)ncc21 [Example 1aj, (1-butyl-5-(4-(5-(trifluoromethyl)-1,2,4-oxadiazol-3-yl)pyridin-2-yl)-1H-pyrrolo[2,3-c]pyridin-3-yl)methanol]
+ (50-150)	+ (50-150)	CN1CCC(CNC(=O)c2ccnc(-c3cc(-c4noc(C(F)(F)F)n4)ccn3)c2)CC1 [Example 1am, N-((1-Methylpiperidin-4-yl)methyl)-4′-(5-(trifluoromethyl)-1,2,4-oxadiazol-3-yl)-[2,2′-bipyridine]-4-carboxamide]
+ (50-150)	+ (50-150)	CN1CCC(CNC(=O)c2ccc(-c3cc(-c4noc(C(F)(F)F)n4)ccn3)nc2)CC1 [Example 1an, N-((1-Methylpiperidin-4-yl)methyl)-4′-(5-(trifluoromethyl)-1,2,4-oxadiazol-3-yl)-[2,2′-bipyridine]-5-carboxamide]

From US12668591B2, “1,2,4-oxadiazole derivatives as histone deacetylase 6 inhibitors” (Oryzon Genomics, S.A., priority 2017, dated 2026)
